Measurements published in PubChem BioAssay AID330 (DTP/NCI, 2004).
“And” between values parts separate entries of the source, which are not always exact repeats. Identical values can stand only once. Inconclusive results and toxic doses are left out.

System: P388 leukemia ip, CD2F1 mice, survival T/C
Test: NCI In Vivo Anticancer Drug Screen. Data for tumor model P388 Leukemia (intraperitoneal) in CD2F1 (CDF1) mice
Conditions: endpoint: median survival time, higher = longer survival
Method in brief: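 Mice carrying the transplanted tumor received test compound or vehicle. Survival was recorded in each group, and the value is the treated-group measurement divided by that of the vehicle-treated control group.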

CC[C@]1(O)C[C@H]2CN(CCc3c([nH]c4ccccc34)[C@@](C(=O)OC)(c3cc4c(cc3OC)N(C=O)[C@H]3[C@@](O)(C(=O)OC)[C@H](OC(C)=O)[C@]5(CC)C=CCN6CC[C@]43[C@@H]65)C2)C1
T/C (dose: 0.06 mg/kg/injection, schedule: Q01DX010 (ip), vehicle: saline): 168 % of control
T/C (dose: 0.08 mg/kg/injection, schedule: Q01DX009 (ip), vehicle: saline): 172 % of control
T/C (dose: 0.08 mg/kg/injection, schedule: Q01DX009 (ip), vehicle: water): 115 % of control
T/C (dose: 0.12 mg/kg/injection, schedule: Q01DX009 (ip), vehicle: water): 166 % of control
T/C (dose: 0.12 mg/kg/injection, schedule: Q04DX003 (ip), vehicle: saline): 163 % of control
T/C (dose: 0.13 mg/kg/injection, schedule: Q01DX005 (ip), vehicle: saline): 161 % of control and 168 % of control
T/C (dose: 0.13 mg/kg/injection, schedule: Q01DX010 (ip), vehicle: saline): 181 % of control
T/C (dose: 0.15 mg/kg/injection, schedule: Q01DX009 (ip), vehicle: saline): 190 % of control
T/C (dose: 0.18 mg/kg/injection, schedule: Q01DX005 (ip), vehicle: saline): 110 % of control and 123 % of control
T/C (dose: 0.2 mg/kg/injection, schedule: Q01DX009 (ip), vehicle: saline): 169 % of control
T/C (dose: 0.2 mg/kg/injection, schedule: Q04DX003 (ip), vehicle: water): 196 % of control
T/C (dose: 0.22 mg/kg/injection, schedule: Q01DX009 (ip), vehicle: saline): 114 % of control
T/C (dose: 0.22 mg/kg/injection, schedule: Q01DX009 (ip), vehicle: water): 113 % of control
T/C (dose: 0.25 mg/kg/injection, schedule: Q01DX001 (ip), vehicle: saline with Tween-80): 115 % of control
T/C (dose: 0.25 mg/kg/injection, schedule: Q01DX001 (iv), vehicle: saline): 122 % of control
T/C (dose: 0.25 mg/kg/injection, schedule: Q01DX005 (ip), vehicle: saline): 180 % of control and 184 % of control
T/C (dose: 0.25 mg/kg/injection, schedule: Q01DX010 (ip), vehicle: saline): 177 % of control
T/C (dose: 0.25 mg/kg/injection, schedule: Q04DX003 (iv), vehicle: saline): 120 % of control
T/C (dose: 0.3 mg/kg/injection, schedule: Q01DX005 (ip), vehicle: saline): 112 % of control
T/C (dose: 0.3 mg/kg/injection, schedule: Q04DX002 (ip), vehicle: saline): 150 % of control
T/C (dose: 0.33 mg/kg/injection, schedule: Q01DX009 (ip), vehicle: saline): 113 % of control
T/C (dose: 0.36 mg/kg/injection, schedule: Q01DX009 (ip), vehicle: water): 150 % of control
T/C (dose: 0.36 mg/kg/injection, schedule: Q04DX003 (ip), vehicle: saline): 167 % of control and 169 % of control and 174 % of control
T/C (dose: 0.36 mg/kg/injection, schedule: Q04DX003 (iv), vehicle: saline): 119 % of control and 123 % of control
T/C (dose: 0.37 mg/kg/injection, schedule: Q04DX002 (ip), vehicle: saline): 117 % of control
T/C (dose: 0.39 mg/kg/injection, schedule: Q04DX002 (ip), vehicle: saline): 154 % of control and 164 % of control
T/C (dose: 0.4 mg/kg/injection, schedule: Q01DX005 (ip), vehicle: saline): 171 % of control
T/C (dose: 0.4 mg/kg/injection, schedule: Q04DX003 (ip), vehicle: saline): 113 % of control
T/C (dose: 0.43 mg/kg/injection, schedule: Q04DX002 (ip), vehicle: saline): 153 % of control and 176 % of control
T/C (dose: 0.44 mg/kg/injection, schedule: Q04DX002 (ip), vehicle: saline): 162 % of control
T/C (dose: 0.5 mg/kg/injection, schedule: Q04DX003 (oral), vehicle: water): 100 % of control
T/C (dose: 0.5 mg/kg/injection, schedule: Q04DX004 (ip), vehicle: saline): 169 % of control
T/C (dose: 0.53 mg/kg/injection, schedule: Q04DX003 (ip), vehicle: saline): 179 % of control and 182 % of control
T/C (dose: 0.6 mg/kg/injection, schedule: Q01DX009 (ip), vehicle: saline): 200 % of control
T/C (dose: 0.6 mg/kg/injection, schedule: Q04DX003 (ip), vehicle: saline): 198 % of control
T/C (dose: 0.65 mg/kg/injection, schedule: Q04DX002 (ip), vehicle: saline): 161 % of control and 168 % of control
T/C (dose: 0.67 mg/kg/injection, schedule: Q04DX002 (ip), vehicle: saline): 174 % of control
T/C (dose: 0.72 mg/kg/injection, schedule: Q04DX002 (ip), vehicle: saline): 158 % of control and 192 % of control
T/C (dose: 0.8 mg/kg/injection, schedule: Q01DX005 (ip), vehicle: saline): 186 % of control
T/C (dose: 0.8 mg/kg/injection, schedule: Q04DX003 (ip), vehicle: water): 191 % of control
T/C (dose: 0.8 mg/kg/injection, schedule: Q04DX003 (iv), vehicle: saline): 161 % of control and 168 % of control
T/C (dose: 1.0 mg/kg/injection, schedule: Q01DX003 (ip), vehicle: saline): 163 % of control
T/C (dose: 1.0 mg/kg/injection, schedule: Q04DX002 (ip), vehicle: saline): 184 % of control
T/C (dose: 1.0 mg/kg/injection, schedule: Q04DX003 (iv), vehicle: saline): 182 % of control
T/C (dose: 1.0 mg/kg/injection, schedule: Q04DX003 (oral), vehicle: water): 106 % of control
T/C (dose: 1.08 mg/kg/injection, schedule: Q04DX002 (ip), vehicle: saline): 167 % of control and 177 % of control
T/C (dose: 1.2 mg/kg/injection, schedule: Q04DX002 (ip), vehicle: saline): 169 % of control and 179 % of control
T/C (dose: 1.2 mg/kg/injection, schedule: Q04DX003 (iv), vehicle: saline): 173 % of control and 177 % of control
T/C (dose: 1.3 mg/kg/injection, schedule: Q01DX001 (ip), vehicle: saline): 156 % of control
T/C (dose: 1.5 mg/kg/injection, schedule: Q04DX002 (ip), vehicle: saline): 161 % of control
T/C (dose: 1.8 mg/kg/injection, schedule: Q04DX002 (ip), vehicle: saline): 191 % of control and 200 % of control
T/C (dose: 1.8 mg/kg/injection, schedule: Q04DX003 (iv), vehicle: saline): 167 % of control and 182 % of control
T/C (dose: 2.0 mg/kg/injection, schedule: Q01DX001 (ip), vehicle: Klucel (hydroxypropylcellulose) (HPC)): 155 % of control and 162 % of control
T/C (dose: 2.0 mg/kg/injection, schedule: Q01DX001 (ip), vehicle: saline with Tween-80): 157 % of control
T/C (dose: 2.0 mg/kg/injection, schedule: Q01DX001 (iv), vehicle: saline): 154 % of control
T/C (dose: 2.0 mg/kg/injection, schedule: Q04DX002 (ip), vehicle: saline): 182 % of control
T/C (dose: 2.0 mg/kg/injection, schedule: Q04DX003 (oral), vehicle: water): 102 % of control
T/C (dose: 2.7 mg/kg/injection, schedule: Q04DX003 (ip), vehicle: saline): 179 % of control
T/C (dose: 2.7 mg/kg/injection, schedule: Q04DX003 (iv), vehicle: saline): 100 % of control
T/C (dose: 3.0 mg/kg/injection, schedule: Q01DX001 (ip), vehicle: saline): 170 % of control and 192 % of control
T/C (dose: 3.0 mg/kg/injection, schedule: Q04DX002 (ip), vehicle: saline): 99 % of control
T/C (dose: 4.0 mg/kg/injection, schedule: Q01DX001 (ip), vehicle: Klucel (hydroxypropylcellulose) (HPC)): 167 % of control and 174 % of control
T/C (dose: 4.0 mg/kg/injection, schedule: Q01DX001 (ip), vehicle: saline with Tween-80): 168 % of control
T/C (dose: 4.0 mg/kg/injection, schedule: Q01DX001 (iv), vehicle: saline): 121 % of control
T/C (dose: 4.0 mg/kg/injection, schedule: Q04DX003 (oral), vehicle: water): 110 % of control
T/C (dose: 4.5 mg/kg/injection, schedule: Q01DX001 (ip), vehicle: saline): 104 % of control
T/C (dose: 8.0 mg/kg/injection, schedule: Q01DX001 (ip), vehicle: Klucel (hydroxypropylcellulose) (HPC)): 194 % of control

CCC1SC(=S)NC1=O (stereo not given)
T/C (dose: 50.0 mg/kg/injection, schedule: Q01DX005 (ip), vehicle: saline with Tween-80): 92 % of control
T/C (dose: 100.0 mg/kg/injection, schedule: Q01DX005 (ip), vehicle: saline with Tween-80): 92 % of control

CC1CCOC(C)O1 (stereo not given)
T/C (dose: 100.0 mg/kg/injection, schedule: Q04DX003 (ip), vehicle: saline): 100 % of control
T/C (dose: 200.0 mg/kg/injection, schedule: Q04DX003 (ip), vehicle: saline): 104 % of control
T/C (dose: 400.0 mg/kg/injection, schedule: Q04DX003 (ip), vehicle: saline): 101 % of control

O=C(O)c1cc([N+](=O)[O-])cc([N+](=O)[O-])c1Sc1ncccn1
T/C (dose: 50.0 mg/kg/injection, schedule: Q01DX009 (ip), vehicle: saline): 96 % of control
T/C (dose: 100.0 mg/kg/injection, schedule: Q01DX009 (ip), vehicle: saline): 100 % of control
T/C (dose: 200.0 mg/kg/injection, schedule: Q01DX009 (ip), vehicle: saline): 101 % of control

CC1=NCC(C)c2ccccc21 (stereo not given)
T/C (dose: 6.25 mg/kg/injection, schedule: Q01DX009 (ip), vehicle: saline with Tween-80): 96 % of control
T/C (dose: 12.5 mg/kg/injection, schedule: Q01DX009 (ip), vehicle: saline with Tween-80): 95 % of control

O=c1[nH]c2cc([N+](=O)[O-])ccc2nc1/C=C(\O)c1ccccc1
T/C (dose: 60.0 mg/kg/injection, schedule: Q01DX005 (ip), vehicle: Klucel + Tween-80): 100 % of control
T/C (dose: 120.0 mg/kg/injection, schedule: Q01DX005 (ip), vehicle: Klucel + Tween-80): 92 % of control
T/C (dose: 240.0 mg/kg/injection, schedule: Q01DX005 (ip), vehicle: Klucel + Tween-80): 92 % of control
